{
  "source": "ChEMBL document CHEMBL1667851",
  "about": "“Synthesis and pharmacological evaluation of the individual stereoisomers of 3-[methyl(1,2,3,4-tetrahydro-2-naphthalenyl)amino]-1-indanone, a potent mast cell stabilising agent” (Bioorg Med Chem Lett, 2011)",
  "key": {"[1]": {"system": "Mast cell", "test": "Inhibition of A23187-induced histamine release in rat peritoneal mast cells", "type": "functional, cell-based"}, "[2]": {"system": "Mast cell", "test": "Inhibition of concanavalin A-induced histamine release in rat peritoneal mast cells", "type": "functional, cell-based"}, "[3]": {"system": "Mast cell", "test": "Inhibition of vancomycin-induced histamine release in rat peritoneal mast cells", "type": "functional, cell-based"}, "[4]": {"system": "Mus musculus", "test": "Inhibition of IgE-induced PCA reaction in albino Swiss mouse at 3 mg/kg administered intradermally", "type": "functional", "set-up": "Activity: scale not given: the % may be the effect or the level left", "details": "for inhibition in vivo at 3 mg/kg: Mus musculus, albino Swiss"}, "[5]": {"system": "Mus musculus", "test": "Inhibition of IgE-induced PCA reaction in intradermally dosed albino Swiss mouse", "type": "functional, organism-based"}, "[6]": {"system": "Mast cell", "test": "Inhibition of compound 48/80-induced histamine release in rat peritoneal mast cells", "type": "functional, cell-based"}, "[7]": {"system": "Mast cell", "test": "Inhibition of anti-IgE-induced histamine release in porcine lung mast cells at 20 uM", "type": "functional", "details": "Sus scrofa"}, "[8]": {"system": "Mast cell", "test": "Inhibition of A23187-induced histamine release in porcine peritoneal mast cells at 20 uM", "type": "functional", "details": "Sus scrofa"}},
  "data": [
    {"smiles": "CN([C@@H]1CCc2ccccc2C1)[C@H]1CC(=O)c2ccccc21", "values": [
      {"measurement": "IC50", "setting": "[1]", "result": 4.08, "unit": "µM"},
      {"measurement": "IC50", "setting": "[2]", "result": 16.9, "unit": "µM"},
      {"measurement": "IC50", "setting": "[3]", "result": 4.47, "unit": "µM"},
      {"measurement": "inhibition in vivo at 3 mg/kg", "setting": "[4]", "result": 111, "unit": "%"},
      {"measurement": "inhibition", "setting": "[5]", "result": "Dose-dependent effect"},
      {"measurement": "IC50", "setting": "[6]", "result": 1.51, "unit": "µM"},
      {"measurement": "inhibition at 20 µM", "setting": "[7]", "result": 53, "unit": "%"},
      {"measurement": "inhibition at 20 µM", "setting": "[8]", "result": 31, "unit": "%"}
    ]},
    {"smiles": "CN([C@@H]1CCc2ccccc2C1)[C@@H]1CC(=O)c2ccccc21", "values": [
      {"measurement": "IC50", "setting": "[1]", "result": 9.48, "unit": "µM"},
      {"measurement": "IC50", "setting": "[2]", "result": 13.1, "unit": "µM"},
      {"measurement": "inhibition in vivo at 3 mg/kg", "setting": "[4]", "result": 77, "unit": "%"},
      {"measurement": "IC50", "setting": "[6]", "result": 3.03, "unit": "µM"},
      {"measurement": "inhibition at 20 µM", "setting": "[7]", "result": 89, "unit": "%"},
      {"measurement": "inhibition at 20 µM", "setting": "[8]", "result": 22, "unit": "%"}
    ]},
    {"smiles": "CN([C@H]1CCc2ccccc2C1)[C@@H]1CC(=O)c2ccccc21", "values": [
      {"measurement": "IC50", "setting": "[1]", "result": 6.97, "unit": "µM"},
      {"measurement": "IC50", "setting": "[2]", "result": 1.6, "unit": "µM"},
      {"measurement": "IC50", "setting": "[3]", "result": 12.6, "unit": "µM"},
      {"measurement": "inhibition in vivo at 3 mg/kg", "setting": "[4]", "result": 68, "unit": "%"},
      {"measurement": "IC50", "setting": "[6]", "result": 2.18, "unit": "µM"},
      {"measurement": "inhibition at 20 µM", "setting": "[7]", "result": 81, "unit": "%"},
      {"measurement": "inhibition at 20 µM", "setting": "[8]", "result": 48, "unit": "%"}
    ]},
    {"smiles": "CN(C1CCc2ccccc2C1)C1CC(=O)c2ccccc21", "note": "(centres undefined)", "values": [
      {"measurement": "inhibition in vivo at 3 mg/kg", "setting": "[4]", "result": 83, "unit": "%"}
    ]},
    {"smiles": "CN([C@H]1CCc2ccccc2C1)[C@H]1CC(=O)c2ccccc21", "values": [
      {"measurement": "IC50", "setting": "[1]", "result": 8.06, "unit": "µM"},
      {"measurement": "IC50", "setting": "[2]", "result": 1.6, "unit": "µM"},
      {"measurement": "inhibition in vivo at 3 mg/kg", "setting": "[4]", "result": 73, "unit": "%"},
      {"measurement": "IC50", "setting": "[6]", "result": 1.49, "unit": "µM"},
      {"measurement": "inhibition at 20 µM", "setting": "[7]", "result": 86, "unit": "%"},
      {"measurement": "inhibition at 20 µM", "setting": "[8]", "result": 40, "unit": "%"}
    ]},
    {"smiles": "O=C([O-])c1cc(=O)c2c(OCC(O)COc3cccc4oc(C(=O)[O-])cc(=O)c34)cccc2o1.[Na+].[Na+]", "note": "[CROMOLYN SODIUM]", "values": [
      {"measurement": "Activity", "setting": "[4]", "result": 73, "unit": "%"}
    ]}
  ]
}
